From patent US8680159B2, “Bradykinin 1 receptor modulating compounds” (Gruenenthal GmbH, priority 2010, dated 2014)

What follows are molecules tested against T1, human B1R receptor (CHO K1 cells stably transfected with the human B1R gene) (Homo sapiens, UniProt P46663) (assay: Functional study on the bradykinin receptor 1 (B1R), Ca2+ fluorescence (Fluo-4) FLIPR/Novostar assay, hB1R cells). Details: CHO-K1, read-out: % Inhibition (h-B1R) at 10 μM.
T1 construct: expressed in transfected cells; host or cells: CHO K1 cells (Chinese hamster ovary), stably transfected
T1 sequence (P46663 1-353): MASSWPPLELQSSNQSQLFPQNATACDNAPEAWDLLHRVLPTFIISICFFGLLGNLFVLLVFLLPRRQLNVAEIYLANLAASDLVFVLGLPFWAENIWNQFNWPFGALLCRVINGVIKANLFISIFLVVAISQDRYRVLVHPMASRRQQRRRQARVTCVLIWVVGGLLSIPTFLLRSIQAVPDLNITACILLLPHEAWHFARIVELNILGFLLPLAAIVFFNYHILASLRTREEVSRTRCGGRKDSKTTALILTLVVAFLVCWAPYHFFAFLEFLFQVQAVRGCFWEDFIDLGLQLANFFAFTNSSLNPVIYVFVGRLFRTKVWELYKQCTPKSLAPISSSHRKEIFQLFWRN
Format: cell-based
Description: The agonistic or antagonistic action of substances can be quantified on the bradykinin receptor 1 (B1R) of the species human and rat using ectopically expressing cell lines (CHO K1 cells) and with the aid of a Ca^2+-sensitive dye (Fluo-4) using a fluorescent imaging plate reader (FLIPR). The indication in % activation is based on the Ca^2+ signal after addition of Lys-Des-Arg^9-bradykinin (0.5 nM) or Des-Arg^9-bradykinin (100 nM). Antagonists lead to suppression of the Ca^2+ influx after the addition of the agonist. % Inhibition compared with the maximum achievable inhibition is indicated.
The agonistic or antagonistic action of substances can be determined on the bradykinin receptor 1 (B1R) of the species human and rat using the following assay. According to this assay, the increase in intracellular Ca^2+ following administration of a B1R agonist is quantified with the aid of a Ca^2+-sensitive dye (Fluo-4 type, Molecular Probes Europe BV, Leiden, Netherlands) using a Fluorescent Imaging Plate Reader (FLIPR, Molecular Devices, Sunnyvale, USA) and/or using a Novostar (BMG Labtech GmbH, Offenburg, Germany).
Chinese hamster ovary cells (CHO K1 cells) which have been stably transfected with the human B1R gene (hB1R cells) or with the B1R gene of the rat (rB1R cells) are used. For functional studies, the cells are plated out on black 96-well plates having a clear base (BD Biosciences, Heidelberg, Germany or Greiner, Frickenhausen, Germany) in a density of 20,000-35,000 cells/well. The cells are left overnight at 37° C. and with 5% CO2 in culture medium (hB1R cells: Nutrient Mixture Ham's F12, Gibco Invitrogen GmbH, Karlsruhe, Germany or DMEM, Sigma-Aldrich, Taufkirchen, Germany; rB1R cells: D-MEM/F12, Gibco Invitrogen GmbH, Karlsruhe, Germany), with 10 vol. % FBS (fetal bovine serum, Gibco Invitrogen GmbH, Karlsruhe, Germany or PAN Biotech GmbH, Aidenbach, Germany). On the following day, the cells are loaded for 60 minutes at 37° C. with 2.13 μM Fluo-4 (Molecular Probes Europe BV, Leiden, Netherlands) in HBSS buffer (Hank's buffered saline solution, Gibco Invitrogen GmbH, Karlsruhe, Germany) […] (Sigma-Aldrich, Taufkirchen, Germany) and 10 mM HEPES (Sigma-Aldrich, Taufkirchen, Germany). The plates are then washed twice with HBSS buffer, and HBSS buffer additionally containing 0.1% BSA (bovine serum albumin; Sigma-Aldrich, Taufkirchen, Germany), 5.6 mM glucose and 0.05% gelatin (Merck KGaA, Darmstadt, Germany) is added to the plates. After incubation for a further 20 minutes at room temperature, the plates are inserted into the FLIPR or Novostar for Ca^2+ measurement. Alternatively, washing is carried out with buffer A (15 mM HEPES, 80 mM NaCl, 5 mM KCl, 1.2 mM CaCl2, 0.7 mM MgSO4, 2 g/l glucose, 2.5 mM probenecid) followed by loading with buffer A with added 2.5 μM Fluo-4 and 0.025% Pluronic F127 (Sigma-Aldrich, Taufkirchen, Germany). The cells are then washed twice with buffer A and incubated for 30 minutes at room temperature with buffer A additionally containing 0.05% BSA and 0.05% gelatin and are then inserted into the FLIPR or Novostar for Ca^2+ measurement. The Ca^2+-dependent fluorescence is measured before and after the addition of substances (λex=488 nm, λem=540 nm). Quantification is carried out by measuring the highest fluorescence intensity (FC, fluorescence counts) over time.
The FLIPR protocol consists of 2 substance additions, which are pipetted in the FLIPR. In the case of measurements using the Novostar, only the second substance addition is pipetted in the device. Both devices measure the fluorescence intensity over time. Test substances (10 μM) are first pipetted onto the cells and the intracellular Ca^2+ increase is compared with the control (hB1R: Lys-Des-Arg^9-bradykinin>=50 nM; rB1R: Des-Arg^9-bradykinin>=1 μM). This gives the % activation, based on the Ca^2+ signal after addition of Lys-Des-Arg^9-bradykinin (>=50 nM) or Des-Arg^9-bradykinin (>=1 μM). […]

Structure (SMILES)	inhibition at 10 µM [%]
Cc1cccc(C)c1C(=O)NC1CCOc2ccc(C(=O)N(C)C3CCN(c4ccncc4)CC3)cc21 (stereo not shown) [CC_H-71, 4-[(2,6-Dimethyl-benzoyl)amino]-N-methyl-N-(1-pyridin-4-yl-piperidin-4-yl)-3,4-dihydro-2H-chromene-6-carboxylic acid amide]	84
CN(C(=O)c1ccc2c(c1)C(NC(=O)c1c(Cl)cccc1C(F)(F)F)CCO2)C1CCN(c2ccncc2)CC1 (stereo not shown) [CC_H-72, 4-[[2-Chloro-6-(trifluoromethyl)-benzoyl]amino]-N-methyl-N-(1-pyridin-4-yl-piperidin-4-yl)-3,4-dihydro-2H-chromene-6-carboxylic acid amide]	93
CN(C(=O)c1ccc2c(c1)C(NC(=O)c1ccccc1Cl)CCC2)C1CCN(c2ccncc2)CC1 (stereo not shown) [CC_H-73, 8-[(2-Chloro-benzoyl)amino]-N-methyl-N-(1-pyridin-4-yl-piperidin-4-yl)-5,6,7,8-tetrahydro-naphthalene-2-carboxylic acid amide]	100
O=C(NCCC1CCN(c2ccncc2)CC1)c1ccc2c(c1)C(NC(=O)c1cccc(Cl)c1Cl)CC2 (stereo not shown) [CC_H-74, 3-[(2,3-Dichloro-benzoyl)amino]-N-[2-(1-pyridin-4-yl-piperidin-4-yl)-ethyl]-2,3-dihydro-1H-indene-5-carboxylic acid amide]	96
CN(C(=O)c1ccc2c(c1)C(NC(=O)c1ccccc1Cl)CC2)C1CCN(c2ccc3cnccc3c2)CC1 (stereo not shown) [CC_H-75, 3-[(2-Chloro-benzoyl)amino]-N-(1-isoquinolin-6-yl-piperidin-4-yl)-N-methyl-2,3-dihydro-1H-indene-5-carboxylic acid amide]	99
CN(C(=O)c1ccc2c(c1)C(NC(=O)c1cc(F)ccc1Cl)CC2)C1CCN(c2ccc3cnccc3c2)CC1 (stereo not shown) [CC_H-76, 3-[(2-Chloro-5-fluoro-benzoyl)amino]-N-(1-isoquinolin-6-yl-piperidin-4-yl)-N-methyl-2,3-dihydro-1H-indene-5-carboxylic acid amide]	100
CN(C(=O)c1ccc2c(c1)C(NC(=O)C1CCCCC1)CC2)C1CCN(c2ccc3cnccc3c2)CC1 (stereo not shown) [CC_H-77, 3-(Cyclohexanecarbonylamino)-N-(1-isoquinolin-6-yl-piperidin-4-yl)-N-methyl-2,3-dihydro-1H-indene-5-carboxylic acid amide]	99
CN(C(=O)c1ccc2c(c1)C(NC(=O)CCC1CCCC1)CC2)C1CCN(c2ccc3cnccc3c2)CC1 (stereo not shown) [CC_H-78, 3-(3-Cyclopentyl-propanoylamino)-N-(1-isoquinolin-6-yl-piperidin-4-yl)-N-methyl-2,3-dihydro-1H-indene-5-carboxylic acid amide]	100
CC(C)CC(=O)NC1CCc2ccc(C(=O)N(C)C3CCN(c4ccc5cnccc5c4)CC3)cc21 (stereo not shown) [CC_H-79, N-(1-Isoquinolin-6-yl-piperidin-4-yl)-N-methyl-3-(3-methyl-butanoylamino)-2,3-dihydro-1H-indene-5-carboxylic acid amide]	99
CN(C(=O)c1ccc2c(c1)C(NC(=O)c1sccc1Cl)CC2)C1CCN(c2ccc3cnccc3c2)CC1 (stereo not shown) [CC_H-80, 3-Chloro-N-[6-[(1-isoquinolin-6-yl-piperidin-4-yl)-methyl-carbamoyl]-2,3-dihydro-1H-inden-1-yl]-thiophene-2-carboxylic acid amide]	98
Cc1cc(N2CCC(N(C)C(=O)c3ccc4c(c3)C(N(C)C(=O)C3CCCCC3)CC4)CC2)cc(C)n1 (stereo not shown) [CC_H-81, 3-(Cyclohexanecarbonyl-methyl-amino)-N-[1-(2,6-dimethyl-pyridin-4-yl)-piperidin-4-yl]-N-methyl-2,3-dihydro-1H-indene-5-carboxylic acid amide]	100
Cc1cc(N2CCC(N(C)C(=O)c3ccc4c(c3)C(N(C)C(=O)c3cc(F)ccc3Cl)CC4)CC2)cc(C)n1 (stereo not shown) [CC_H-82, 3-[(2-Chloro-5-fluoro-benzoyl)-methyl-amino]-N-[1-(2,6-dimethyl-pyridin-4-yl)-piperidin-4-yl]-N-methyl-2,3-dihydro-1H-indene-5-carboxylic acid amide]	100
Cc1cc(N2CCC(N(C)C(=O)c3ccc4c(c3)C(N(C)C(=O)c3cccc(Cl)c3Cl)CC4)CC2)cc(C)n1 (stereo not shown) [CC_H-83, 3-[(2,3-Dichloro-benzoyl)-methyl-amino]-N-[1-(2,6-dimethyl-pyridin-4-yl)-piperidin-4-yl]-N-methyl-2,3-dihydro-1H-indene-5-carboxylic acid amide]	100
Cc1cc(N2CCC(N(C)C(=O)c3ccc4c(c3)C(N(C)C(=O)CCC3CCCC3)CC4)CC2)cc(C)n1 (stereo not shown) [CC_H-84, 3-(3-Cyclopentyl-propanoyl-methyl-amino)-N-[1-(2,6-dimethyl-pyridin-4-yl)-piperidin-4-yl]-N-methyl-2,3-dihydro-1H-indene-5-carboxylic acid amide]	100
Cc1cccc(C)c1C(=O)NC1CC(C)(C)c2ccc(C(=O)N(C)C3CCN(c4ccncc4)CC3)cc21 (stereo not shown) [CC_H-85, 3-[(2,6-Dimethyl-benzoyl)amino]-N,1,1-trimethyl-N-(1-pyridin-4-yl-piperidin-4-yl)-2,3-dihydro-indene-5-carboxylic acid amide]	99
Cc1cc(N2CCC(N(C)C(=O)c3ccc4c(c3)C(N(C)C(=O)c3cnccc3C(F)(F)F)CC4)CC2)cc(C)n1 (stereo not shown) [CC_H-86, N-[6-[[1-(2,6-Dimethyl-pyridin-4-yl)-piperidin-4-yl]-methyl-carbamoyl]-2,3-dihydro-1H-inden-1-yl]-N-methyl-4-(trifluoromethyl)-pyridine-3-carboxylic acid amide]	95
Cc1cc(N2CCC(N(C)C(=O)c3ccc4c(c3)C(N(C)C(=O)c3ccccc3Cl)CC4)CC2)cc(C)n1 (stereo not shown) [CC_H-87, 3-[(2-Chloro-benzoyl)-methyl-amino]-N-[1-(2,6-dimethyl-pyridin-4-yl)-piperidin-4-yl]-N-methyl-2,3-dihydro-1H-indene-5-carboxylic acid amide]	100
Cc1cc(N2CCC(N(C)C(=O)c3ccc4c(c3)C(N(C)C(=O)c3sccc3Cl)CC4)CC2)cc(C)n1 (stereo not shown) [CC_H-88, 3-Chloro-N-[6-[[1-(2,6-dimethyl-pyridin-4-yl)-piperidin-4-yl]-methyl-carbamoyl]-2,3-dihydro-1H-inden-1-yl]-N-methyl-thiophene-2-carboxylic acid amide]	100
CN(C(=O)c1ccc2c(c1)C(NS(=O)(=O)Cc1ccccc1C(F)(F)F)CC2(C)C)C1CCN(c2ccncc2)CC1 (stereo not shown) [CC_H-89, N,1,1-Trimethyl-N-(1-pyridin-4-yl-piperidin-4-yl)-3-[[[2-(trifluoromethyl)-phenyl]-methylsulfonyl]amino]-2,3-dihydro-indene-5-carboxylic acid amide]	100
